Source: ChEMBL document CHEMBL1156020, “Synthesis and antiviral activity of HCV NS3/4A peptidomimetic boronic acid inhibitors” (Bioorg Med Chem Lett, 2009)

Columns and labels:
Hepatitis C virus [1] = test: Inhibition of HCV1b con1 NS3/4A protease after 20 mins by FRET-based assay; set-up: species or system Hepacivirus hominis; settings: Con1, 20 min
Hepatitis C virus [2] = test: Antiviral activity against HCV infected in human Huh-luc/neo-ET cells after 72 hrs by replicon assay; format: functional, organism-based, Hepacivirus hominis
[3] = Inhibition of HCV1a wild type NS3/4A protease after 20 mins by FRET-based assay; set-up: species or system Hepatitis C virus subtype 1a
[4] = Inhibition of HCV2a wild type NS3/4A protease after 20 mins by FRET-based assay; set-up: species or system Hepatitis C virus subtype 2a
[5] = Inhibition of HCV3a wild type NS3/4A protease after 20 mins by FRET-based assay; set-up: species or system Hepatitis C virus subtype 3a
Hepatitis C virus [6] = test: Selectivity ratio of IC50 for HCV1b con1 wild type NS3/4A protease over IC50 for HCV1b con1 NS3/4A protease A156S mutant; set-up: species or system Hepacivirus hominis
Hepatitis C virus [7] = test: Selectivity ratio of IC50 for HCV1b con1 wild type NS3/4A protease over IC50 for HCV1b con1 NS3/4A protease A156T mutant; set-up: species or system Hepacivirus hominis
Hepatitis C virus [8] = test: Selectivity ratio of IC50 for HCV1b con1 wild type NS3/4A protease over IC50 for HCV1b con1 NS3/4A protease A156V mutant; set-up: species or system Hepacivirus hominis
Hepatitis C virus [9] = test: Selectivity ratio of IC50 for HCV1b con1 wild type NS3/4A protease over IC50 for HCV1b con1 NS3/4A protease R155K mutant; set-up: species or system Hepacivirus hominis
Hepatitis C virus [10] = test: Selectivity ratio of IC50 for HCV1b con1 wild type NS3/4A protease over IC50 for HCV1b con1 NS3/4A protease D168A mutant; set-up: species or system Hepacivirus hominis
Hepatitis C virus [11] = test: Selectivity ratio of IC50 for HCV1b con1 wild type NS3/4A protease over IC50 for HCV1b con1 NS3/4A protease T54A mutant; set-up: species or system Hepacivirus hominis

SMILES	IC50 (Hepatitis C virus [1]) [nM]	EC50 (Hepatitis C virus [2]) [nM]	other results
CCC[C@H](NC(=O)[C@@H]1C[C@@H](OC(=O)N2Cc3ccccc3C2)CN1C(=O)[C@@H](NC(=O)OCC(C)(C)C)C(C)(C)C)B1O[C@@H]2C[C@@H]3C[C@@H](C3(C)C)[C@]2(C)O1	0.7	41	
CCC[C@H](NC(=O)[C@@H]1C[C@@H](OC(=O)N2Cc3ccccc3C2)CN1C(=O)[C@@H](NC(=O)OC(C)(C)C)C(C)(C)C)B(O)O	1	69	IC50 [3]: 2 nM; IC50 [4]: 21 nM; IC50 [5]: 61 nM; Ratio IC50 (Hepatitis C virus [6]): 5; Ratio IC50 (Hepatitis C virus [7]): 70; Ratio IC50 (Hepatitis C virus [8]): 158; Ratio IC50 (Hepatitis C virus [9]): 109; Ratio IC50 (Hepatitis C virus [10]): 61; Ratio IC50 (Hepatitis C virus [11]): 121
CCC[C@H](NC(=O)[C@@H]1C[C@@H](OC(=O)N2Cc3ccccc3C2)CN1C(=O)[C@@H](NC(=O)OCCN1CCCC1)C(C)(C)C)B1O[C@@H]2C[C@@H]3C[C@@H](C3(C)C)[C@]2(C)O1	5	> 1000	
CC[C@H](NC(=O)[C@@H]1C[C@@H](OC(=O)N2Cc3ccccc3C2)CN1C(=O)[C@@H](NC(=O)OC(C)(C)C)C1CCCCC1)B(O)O	1	71	IC50 [3]: 0.9 nM; IC50 [4]: 6 nM; IC50 [5]: 23 nM; Ratio IC50 (Hepatitis C virus [6]): 4; Ratio IC50 (Hepatitis C virus [7]): 40; Ratio IC50 (Hepatitis C virus [8]): 64; Ratio IC50 (Hepatitis C virus [9]): 63; Ratio IC50 (Hepatitis C virus [10]): 47; Ratio IC50 (Hepatitis C virus [11]): 69
CCC[C@H](NC(=O)[C@@H]1C[C@@H](OC(=O)N2Cc3ccccc3C2)CN1C(=O)[C@@H](NC(=O)OCC)C(C)(C)C)B1O[C@@H]2C[C@@H]3C[C@@H](C3(C)C)[C@]2(C)O1	2	230	
CCC[C@H](NC(=O)[C@@H]1C[C@@H](OC(=O)N2Cc3ccccc3C2)CN1C(=O)[C@@H](NC(=O)NCCN(CC)CC)C(C)(C)C)B1O[C@@H]2C[C@@H]3C[C@@H](C3(C)C)[C@]2(C)O1	27	> 1000	
CCC[C@H](NC(=O)[C@@H]1C[C@@H](OC(=O)N2Cc3ccccc3C2)CN1C(=O)[C@@H](NC(=O)OC(C)(C)C)C(C)(C)C)B1O[C@@H]2C[C@@H]3C[C@@H](C3(C)C)[C@]2(C)O1	0.8	93	
CCC[C@H](NC(=O)[C@@H]1C[C@@H](OC(=O)N2Cc3ccccc3C2)CN1C(=O)[C@@H](NC(=O)C(O)C(C)(C)C)C(C)(C)C)B1O[C@@H]2C[C@@H]3C[C@@H](C3(C)C)[C@]2(C)O1 (some centres undefined)	3	> 1000	
CC(C)(C)OC(=O)N[C@H](C(=O)N1C[C@H](OC(=O)N2Cc3ccccc3C2)C[C@H]1C(=O)N[C@@H](CC1CCC1)B(O)O)C(C)(C)C	2	171	
CCC[C@H](NC(=O)[C@@H]1C[C@@H](OC(=O)N2Cc3ccccc3C2)CN1C(=O)[C@@H](NC(=O)OCC(C)C)C(C)(C)C)B1O[C@@H]2C[C@@H]3C[C@@H](C3(C)C)[C@]2(C)O1	0.3	54	
CCC[C@H](NC(=O)[C@@H]1C[C@@H](OC(=O)N2Cc3ccccc3C2)CN1C(=O)[C@@H](NC(=O)OC(C)(C)C)C1CCCCC1)B(O)O	2	110	
CC(C)(C)OC(=O)N[C@H](C(=O)N1C[C@H](OC(=O)N2Cc3ccccc3C2)C[C@H]1C(=O)NC1(B(O)O)CC1)C1CCCCC1	3350		
CCC[C@H](NC(=O)[C@@H]1C[C@@H](OC(=O)N2Cc3ccccc3C2)CN1C(=O)[C@@H](NC(=O)N[C@H](CN(C)S(C)(=O)=O)C(C)(C)C)C(C)(C)C)B(O)O	0.5	25	IC50 [3]: 0.3 nM; IC50 [4]: 0.6 nM; IC50 [5]: 0.9 nM; Ratio IC50 (Hepatitis C virus [6]): <4; Ratio IC50 (Hepatitis C virus [7]): <4; Ratio IC50 (Hepatitis C virus [8]): 12; Ratio IC50 (Hepatitis C virus [9]): 6; Ratio IC50 (Hepatitis C virus [10]): <4; Ratio IC50 (Hepatitis C virus [11]): 8
CCC[C@H](NC(=O)[C@@H]1C[C@@H](OC(=O)N2Cc3ccccc3C2)CN1C(=O)[C@@H](NS(C)(=O)=O)C(C)(C)C)B1O[C@@H]2C[C@@H]3C[C@@H](C3(C)C)[C@]2(C)O1	11	> 1000	
CC[C@H](NC(=O)[C@@H]1C[C@@H](OC(=O)N2Cc3ccccc3C2)CN1C(=O)[C@@H](NC(=O)OC(C)(C)C)C(C)(C)C)B(O)O	2	98	
CCC[C@H](NC(=O)[C@@H]1C[C@@H](OC(=O)N2Cc3ccccc3C2)CN1C(=O)[C@@H](NC(=O)OCCF)C(C)(C)C)B1O[C@@H]2C[C@@H]3C[C@@H](C3(C)C)[C@]2(C)O1	2	408	
CCC[C@H](NC(=O)[C@@H]1C[C@@H](OC(=O)N2Cc3ccccc3C2)CN1C(=O)[C@@H](N)C(C)(C)C)B1O[C@@H]2C[C@@H]3C[C@@H](C3(C)C)[C@]2(C)O1	3200		
